Measurements taken from patent publication US11730178B2, “Extraction method” (THE PRODUCT MAKERS (AUSTRALIA) PTY LTD, priority 2012, dated 2023).

Tests used:
[1] = test system: PEG2 production from 3T3 cells; experiment: PEG2 (prostaglandin E2) inhibition in 3T3 cells stimulated with calcium ionophore, EIA kit; type: cell-based; conditions: Mus musculus, NIH3T3, at 0.488 μg/mL, read-out: highest PEG2 inhibition observed
From the text: An extract according to the invention can also be tested for anti-inflammatory activity. By way of a non-limiting example, the extracts may be tested for prostaglandin E2 (PGE2) activity. As known in the art, PGE2 inhibitory activity can be measured by the ability of test samples to inhibit PGE2 production in 3T3 cells when stimulated with calcium ionophore. As understood in the art, aspirin and ibuprofen may be included in the assay as a positive control. The in vitro production of PEG2 from 3T3 cells was measured using the Cayman Chemical Prostaglandin E2 monoclonal EIA (Enzyme Immuno Assay) kit. The cells were exposed to samples 3 and 6 and stimulated with calcium ionophore. The cell supernatants were then assayed for PEG2 production. The cell cytotoxicity of the samples was tested against 3T3 cells to confirm that the observed PEG2 inhibition was not due to cell cytotoxicity. Aspirin and ibuprofen were used as positive controls.

[2] = molecular target: yeast (Saccharomyces cerevisiae) α-glucosidase; experiment: α-Glucosidase inhibition (hydrolysis of 4-methylumbelliferyl-α-D-glucopyranoside, fluorescence); type: biochemical; conditions: pH 5.5, 20 minutes at 37° C.
Procedure: As known in the art, α-glucosidase inhibitory activity can be measured as the ability of test samples to prevent the hydrolysis of 4-methylumbelliferyl-α-D-glucopyranosidase by yeast (Saccharomyces cerevisiae) α-glucosidase using known techniques. As will be understood by the skilled person, acarbose can be included in the assay as a positive control.
α-Glucosidase inhibitory activity is measured as the ability of test samples to prevent the hydrolysis of 4-methylumbelliferyl-α-D-glucopyranosidase by yeast (Saccharomyces cerevisiae) α-glucosidase.
Each sample (0.5 mL) was weighed and freeze-dried to determine its % dry matter. The samples were then resuspended in either dimethyl sulfoxide (DMSO) or DMSO:water (1:1) to a concentration of 15 mg/mL, after which the samples were serially diluted.
The substrate, 4-methylumbelliferyl-α-D-glucopyranoside, and enzyme, yeast α-glucosidase, were prepared in the assay buffer, sodium acetate buffer (pH 5.5). The substrate (final concentration 83 μM, 45 μL) was added to 96-well plates containing 45 μL enzyme (final concentration 1.7 mU/mL) and 10 μL of sample. […] The reaction was stopped by the addition of 100 mM sodium glycine buffer (100 μL, pH 10.6), the plate was shaken for a further 30 seconds, and the fluorescence intensity was measured at λex 355 nm and λem 460 nm. […]

| Compound | inhibition at 0.488 µg/mL [1] [%] | α-glucosidase inhibitory activity IC50 [2] [µg/mL] |
| --- | --- | --- |
| CC(C)Cc1ccc(C(C)C(=O)O)cc1 (centres unmarked) [ibuprofen] | 42.1 | – |
| fucoidan | – | 0.17 |
